Laboratory results: patent publication US10519247B2, “Targeting HER2 and HER3 with bispecific antibodies in cancerous cells” (Board of Regents, The University of Texas System, priority 2013, dated 2019)

Columns and labels:
Type in all cases: cell-based, human
SK-BR-3 cells [1] = test: Proliferation assay (MTS), SK-BR-3; conditions: 5 days
Description: (§1) Cells were plated in 96 well plates at a density of 2,500 cells per well and incubated overnight. […] Antibodies were used at a concentration of 50 nM unless otherwise indicated. Dimethyl sulfoxide or phosphate buffered saline (PBS) were used as vehicle controls for lapatinib or HRG-β1/antibodies, respectively. After 5 days of incubation in a 37° C. 5% CO2 incubator, cell proliferation was quantitated using CellTiter 96 AQeous One Solution Proliferation Assay kit (Promega, catalog no. G3580) according to the manufacturer's instructions.

SK-BR-3 cells [2] = test: Flow cytometry of cell surface HER2 and HER3, SK-BR-3; conditions: 1 μM lapatinib, 24 hours
Description: (§2) Cells were treated with 1 μM lapatinib (Lap), medium (Med) or vehicle control (DMSO) for 24 hours.
(§3) The methodology used to determine HER2 and HER3 levels by flowcytometry is as follows, unless otherwise indicated. Antibodies were labeled with either Alexa Fluor® 647 carboxylic acid, succinimidyl ester (Life Technologies, Catalog # A-20173) or Alexa Fluor® 488 carboxylic acid, succinimidyl ester (Life Technologies, Catalog # A-10235) using methods recommended by the manufacturer. Following the labeling reaction, antibodies were extensively dialyzed against PBS to remove unincorporated Alexa dye. Cells were seeded at a density of 100,000 cells per well in 24 well plates, incubated overnight, and subsequently treated with either 1 μM lapatinib or vehicle control (DMSO) for 24 hours at 37° C. in a CO2 incubator. […] Following incubation, cells were trypsinized, washed, and suspended in PBS. Stained cells were analyzed using a BD FACScalibur and data processed using FlowJo (Tree Star).

SK-BR-3 cells [3] = test: Immunoblotting of cell lysates, SK-BR-3
Description: (§4) Cells cultured to near confluence in 6 well plates were treated with lapatinib, HRG-β1 or antibodies as for proliferation assays. Following one or 24 hours incubation, cells were lysed using RIPA buffer (50 mM Tris, 150 mM NaCl, 0.5% sodium deoxycholate, 1% Triton X-100, 0.1% sodium dodecyl sulfate, 2 ug/mL aprotinin, 2 ug/mL leupeptin, 1 ug/mL pepstatin A, and 0.4 mg/mL pefabloc SC PLUS). Lysates were centrifuged for 20 minutes at 14,600 rpm at 4° C. and supernatants were collected. Protein concentrations in each lysate were determined using the BCA protein assay reagent (Pierce, catalog no. 23223). Total lysates were fractionated by SDS-PAGE and transferred onto polyvinylidene difluoride (PVDF) membranes (Millipore, catalog no. IPVH00010) or nitrocellulose membranes (Bio-Rad, catalog no 162.0145). Membranes were incubated with 5% bovine serum albumin in Tris-buffered saline with 0.1% Tween (TBST, pH 8.0) for 1 hour following transfer to block non-specific binding sites. Blocked membranes were incubated with primary antibodies overnight at 4° C. with agitation. Prior to incubation with the secondary antibodies conjugated to horseradish peroxidase, blots were washed three times (10 minutes/wash) with TB ST. Following incubation with secondary antibodies for 1 hour and washing, bound secondary antibody was detected using chemiluminescent detection regent (GE Healthcare, catalog no. RPN 2209/AF).

BT-474 cells [4] = test: Immunoblotting of cell lysates, BT-474
Description: as §4

BT-474 cells [5] = test: Proliferation assay (MTS), BT-474; conditions: 5 days
Description: as §1

BT-474 cells [6] = test: Flow cytometry of cell surface HER2 and HER3, BT-474; conditions: 1 μM lapatinib, 24 hours
Description: as §2, §3

HCC1419 cells = test: Proliferation assay (MTS), HCC1419; conditions: 5 days
Description: as §1

SK-BR-3 cells [7] = test: Fluorescence microscopy of intracellular trafficking; conditions: 50 nM
Text: The combined pulse plus chase times are indicated on the left margin. Anti-HER3 or HER2/HER3 antibodies were detected with Alexa 555-labeled secondary antibody (pseudocolored red in overlay) and anti-EEA-1 antibody with Alexa 647-labeled secondary antibody (pseudocolored green in overlay). […] Scale bars=2 μm.
Cells were fixed, permeabilized and stained for LAMP-1. Anti-HER3 or HER2/HER3 antibodies were detected with Alexa 555-labeled secondary antibody (pseudocolored red in overlay) and anti-LAMP-1 antibody with Alexa 488-labeled secondary antibody (pseudocolored green in overlay). […] Scale bars=2 μm.
For fixation, cells were treated with 1.7% (w/v) paraformaldehyde for 10 minutes at 37° C. and then permeabilized with 0.05% (v/v) saponin for 10 minutes at room temperature in PBS. […] After blocking for 30 minutes with goat serum (Sigma-Aldrich, catalog no. G6767), bound primary antibodies were detected by incubating cells with the following secondary antibody conjugates for 25 minutes at room temperature: Alexa 555-labeled goat anti-human IgG (H+L) (Life Technologies, catalog no. A21433), Alexa 647-labeled goat anti-mouse IgG (H+L) (Life Technologies, catalog no. A21236) and Alexa 488-labeled goat anti-rabbit IgG (H+L) (Life Technologies, catalog no. A11034). […]

[8] = lapatinib 50 nM-1 μM, no heregulin
[9] = 1 μM lapatinib + heregulin 6.25 nM
[10] = 50 nM antibody + heregulin 6.25 nM
[11] = 50 nM antibody + 1 μM lapatinib + heregulin 6.25 nM
[12] = 50 nM antibody, no heregulin, no lapatinib
[13] = 50 nM antibody, one hour, versus trastuzumab, pertuzumab, TAb6 or PAb6, not sustained at 24 hours

CS(=O)(=O)CCNCc1ccc(-c2ccc3ncnc(Nc4ccc(OCc5cccc(F)c5)c(Cl)c4)c3c2)o1 [lapatinib, reference compound]
proliferation, lapatinib alone (SK-BR-3 cells [1]; [8]): inhibition of proliferation
proliferation, lapatinib plus heregulin (SK-BR-3 cells [1]; lapatinib + heregulin 6.25 nM): growth inhibition was ablated
HER2 levels on the plasma membrane (SK-BR-3 cells [2]): upregulation
HER3 levels on the plasma membrane (SK-BR-3 cells [2]): upregulation
inhibition of HER3, Akt and Erk phosphorylation, lapatinib plus heregulin (SK-BR-3 cells [3]; [9]): partially reversed
HER3, Akt and Erk phosphorylation, lapatinib alone (SK-BR-3 cells [3]; 1 μM lapatinib, 1 or 24 hours): potent inhibition
inhibition of HER3, Akt and Erk phosphorylation, lapatinib plus heregulin (BT-474 cells [4]; [9]): partially reversed
HER3, Akt and Erk phosphorylation, lapatinib alone (BT-474 cells [4]; 1 μM lapatinib, 1 or 24 hours): potent inhibition
proliferation, lapatinib alone (BT-474 cells [5]; [8]): inhibition of proliferation
proliferation, lapatinib plus heregulin (BT-474 cells [5]; lapatinib + heregulin 6.25 nM): growth inhibition was ablated
HER2 levels on the plasma membrane (BT-474 cells [6]): not upregulated
HER3 levels on the plasma membrane (BT-474 cells [6]): upregulation

heregulin [reference compound]
proliferation in the presence of heregulin alone (SK-BR-3 cells [1]; [10]): reduced proliferation
proliferation in the presence of heregulin alone (HCC1419 cells; heregulin 6.25 nM): increased proliferation
proliferation in the presence of heregulin alone (BT-474 cells [5]; heregulin 6.25 nM): trend towards heregulin-stimulated proliferation

B1: Ab6: bivalent anti-HER3 antibody which competes with heregulin for binding to HER3 (antibody, V domains shown)
VH: QVQLLESGGGLVQPGGSLRLSCAASGFTFSHYVMAWVRQAPGKGLEWVSSISSSGGWTLYADSVKGRFTISRDNSKNTLYLQMNSLRAEDTAVYYCTRGLKMATIFDYWGQGTLVTVSS
VL: DIQLTQPASVSGSPGQSITISCTGTSSDVGSYNVVSWYQQHPGKAPKLIIYEVSQRPSGVSNRFSGSKSGNTASLTISGLQTEDEADYYCCSYAGSSIFVIFGGGTKVTVL
proliferation in the presence of heregulin and lapatinib (SK-BR-3 cells [1]; [11]): anti-proliferative effects
proliferation (SK-BR-3 cells [1]; [12]): reduced proliferation
proliferation in the presence of heregulin and lapatinib (HCC1419 cells; [11]): anti-proliferative effects
proliferation in the presence of heregulin (HCC1419 cells; [10]): ablated the inhibitory effects
proliferation (HCC1419 cells; [12]): reduced proliferation
pAkt levels in the presence of heregulin (SK-BR-3 cells [3]; 50 nM antibody + heregulin 6.25 nM, 24 hours): a reduction
pErk levels at one hour (SK-BR-3 cells [3]; [13]): lower
localization following 15 minutes of treatment (SK-BR-3 cells [7]): internalized into early endosomes
localization within one hour of treatment (SK-BR-3 cells [7]; 15 minutes pulse, 45 minutes chase): present in LAMP-1+ lysosomes
pErk levels at one hour (BT-474 cells [4]; [13]): lower
proliferation in the presence of heregulin and lapatinib (BT-474 cells [5]; [11]): anti-proliferative effects
proliferation in the presence of heregulin (BT-474 cells [5]; [10]): ablated the inhibitory effects
proliferation (BT-474 cells [5]; [12]): the effects were not significant
